Assay results from patent US20240382483A1, “HETEROCYCLIC EGFR INHIBITORS FOR USE IN THE TREATMENT OF CANCER” (Blueprint Medicines Corporation, priority 2021, published 2024).
Structures can show the parent of a compound that is named as a salt.

Columns and labels:
[1] = biological target: T1, intracellular phosphorylation of EGFR in NCI-H1975 cell line that harbors the EGFR L858R T790M mutations (Homo sapiens, UniProt P00533, L858R/T790M); test: NCI-H1975 pEGFR AlphaLISA assay; assay type: cell-based; conditions: NCI-H1975 cells (EGFR L858R T790M), p-EGFR (Tyr1068), 4-5 hours incubation; read-out: Ext pEGFR H1975 GMean IC50 (nM) Protocol: @Pharmaron AlphaLISA (Num)
T1 construct: NCI-H1975 cell line that harbors the EGFR L858R T790M mutations (ATCC, CRL-5908); host or cells: NCI-H1975
Protocol: On the next day, the test compounds and DMSO control were added into H1975 cell plate followed by incubation at 37C/5% CO2 for 4-5 hours. […] Then 5 μL of a donor bead mix was added to each well followed by overnight incubation at room temperature in dark. On the next day, the plate was read at a compatible plate reader to obtain pEGFR signal. Percent of pEGFR inhibition was plotted against log concentration of compounds to generate IC50 values.

EGFR (L858R T790M C797S) = biological target: T2, EGFR (L858R T790M C797S) (Homo sapiens, UniProt P00533, C797S/L858R/T790M); test: Biochemical EGFR inhibition assay (Caliper mobility shift), EGFR LRTMCS; conditions: LRTMCS (PH) IC50 (nM) @ 1 mM ATP (Num), EGFR LRTMCS mutant
T2 construct: purchased SignalChem E10-122VG
Outline: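 Each enzyme was allowed to phosphorylate 10–20% of its peptide at 25° C. before EDTA (35 mM) quench. Separated substrate and product peaks were measured by mobility shift, giving apparent IC50 values.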

T2 sequence (P00533 25-1210 T790M/C797S/L858R): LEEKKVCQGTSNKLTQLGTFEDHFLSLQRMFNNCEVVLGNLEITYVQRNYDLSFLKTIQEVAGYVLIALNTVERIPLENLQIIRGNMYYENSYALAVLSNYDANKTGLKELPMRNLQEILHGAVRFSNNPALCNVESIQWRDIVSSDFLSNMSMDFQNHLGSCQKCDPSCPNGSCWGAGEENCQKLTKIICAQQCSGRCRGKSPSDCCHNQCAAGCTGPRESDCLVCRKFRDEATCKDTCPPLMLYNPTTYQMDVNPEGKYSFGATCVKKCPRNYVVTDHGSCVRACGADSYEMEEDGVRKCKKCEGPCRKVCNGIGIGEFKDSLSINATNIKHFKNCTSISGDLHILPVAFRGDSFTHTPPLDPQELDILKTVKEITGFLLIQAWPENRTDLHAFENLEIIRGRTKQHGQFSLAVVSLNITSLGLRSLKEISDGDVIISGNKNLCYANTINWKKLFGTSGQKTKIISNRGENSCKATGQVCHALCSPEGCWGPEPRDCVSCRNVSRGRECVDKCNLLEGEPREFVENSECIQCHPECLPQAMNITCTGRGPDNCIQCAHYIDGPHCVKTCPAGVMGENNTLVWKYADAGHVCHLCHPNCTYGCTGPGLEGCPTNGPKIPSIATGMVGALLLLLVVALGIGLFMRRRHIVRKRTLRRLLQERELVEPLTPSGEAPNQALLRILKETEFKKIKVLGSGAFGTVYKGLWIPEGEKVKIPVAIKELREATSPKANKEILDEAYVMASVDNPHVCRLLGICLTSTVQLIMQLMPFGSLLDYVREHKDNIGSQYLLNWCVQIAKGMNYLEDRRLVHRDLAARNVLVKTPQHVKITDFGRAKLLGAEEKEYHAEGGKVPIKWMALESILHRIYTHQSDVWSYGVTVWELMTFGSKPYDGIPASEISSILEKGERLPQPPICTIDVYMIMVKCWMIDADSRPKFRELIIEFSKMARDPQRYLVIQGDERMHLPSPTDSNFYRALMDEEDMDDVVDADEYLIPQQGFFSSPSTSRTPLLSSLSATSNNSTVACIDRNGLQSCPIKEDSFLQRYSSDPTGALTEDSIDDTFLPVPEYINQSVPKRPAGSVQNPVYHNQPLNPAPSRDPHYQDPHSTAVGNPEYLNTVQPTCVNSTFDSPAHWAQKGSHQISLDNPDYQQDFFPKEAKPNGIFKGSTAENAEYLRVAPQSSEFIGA
T1 sequence (P00533 25-1210 T790M/L858R): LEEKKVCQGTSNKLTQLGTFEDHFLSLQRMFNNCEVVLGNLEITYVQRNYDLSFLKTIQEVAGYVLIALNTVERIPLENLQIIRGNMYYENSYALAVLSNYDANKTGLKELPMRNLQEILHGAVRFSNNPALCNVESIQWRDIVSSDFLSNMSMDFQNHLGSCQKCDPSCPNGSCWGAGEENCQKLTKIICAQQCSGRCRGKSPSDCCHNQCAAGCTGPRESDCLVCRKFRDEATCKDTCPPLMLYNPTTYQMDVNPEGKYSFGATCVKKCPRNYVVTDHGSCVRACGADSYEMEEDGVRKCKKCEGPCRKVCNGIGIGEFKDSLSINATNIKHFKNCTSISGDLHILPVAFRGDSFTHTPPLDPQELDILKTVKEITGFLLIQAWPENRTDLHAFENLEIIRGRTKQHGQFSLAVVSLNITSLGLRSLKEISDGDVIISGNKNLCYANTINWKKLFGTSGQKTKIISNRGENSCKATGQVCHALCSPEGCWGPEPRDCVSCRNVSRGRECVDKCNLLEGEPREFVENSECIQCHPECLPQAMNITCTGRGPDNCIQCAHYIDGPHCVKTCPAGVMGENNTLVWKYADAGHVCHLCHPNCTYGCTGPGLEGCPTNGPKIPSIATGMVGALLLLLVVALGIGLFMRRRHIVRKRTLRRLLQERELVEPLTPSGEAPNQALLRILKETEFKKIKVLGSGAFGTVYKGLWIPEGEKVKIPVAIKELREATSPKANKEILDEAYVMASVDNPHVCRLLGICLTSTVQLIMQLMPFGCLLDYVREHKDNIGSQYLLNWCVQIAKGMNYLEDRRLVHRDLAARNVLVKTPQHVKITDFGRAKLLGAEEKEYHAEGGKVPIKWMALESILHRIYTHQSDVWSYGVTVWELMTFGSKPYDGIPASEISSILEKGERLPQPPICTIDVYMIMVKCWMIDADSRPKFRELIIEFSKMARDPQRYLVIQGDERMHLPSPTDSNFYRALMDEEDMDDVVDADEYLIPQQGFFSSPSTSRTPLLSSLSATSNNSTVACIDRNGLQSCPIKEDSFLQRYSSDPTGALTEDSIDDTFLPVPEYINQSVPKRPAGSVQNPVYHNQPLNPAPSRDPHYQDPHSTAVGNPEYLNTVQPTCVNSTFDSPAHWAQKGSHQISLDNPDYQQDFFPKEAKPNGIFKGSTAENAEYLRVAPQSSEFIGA

Row | IC50 [1] | IC50 (EGFR (L858R T790M C797S)) | Compound
1 | 30 to 50 nM | 15 to 20 nM | CC(C)c1cnc(N2C[C@H](n3ccnn3)[C@H]2C)c2cnc(Nc3ccnc(N4CC[C@@](C)(O)[C@@H](F)C4)n3)cc12 [Example 144, (3S,4R)-3-fluoro-1-(4-((5-isopropyl-8-((2R,3S)-2-methyl-3-(1H-1,2,3-triazol-1-yl)azetidin-1-yl)-2,7-naphthyridin-3-yl)amino)pyrimidin-2-yl)-4-methylpiperidin-4-ol]
2 | 20 to 30 nM | < 15 nM | CO[C@@H]1CCN(c2nccc(Nc3cc4c(C(C)C)cnc(N5CC(O)C5)c4cn3)n2)C[C@@H]1F [Example 147, 1-(6-((2-((3S,4R)-3-fluoro-4-methoxypiperidin-1-yl)pyrimidin-4-yl)amino)-4-isopropyl-2,7-naphthyridin-1-yl)azetidin-3-ol]
3 | < 10 nM | < 15 nM | CO[C@@H]1CCN(c2nccc(Nc3cc4c(C(C)C)cnc(N5C[C@H](OCCO)[C@H]5C)c4cn3)n2)C[C@@H]1F [Example 148, 2-(((2R,3S)-1-(6-((2-((3S,4R)-3-fluoro-4-methoxypiperidin-1-yl)pyrimidin-4-yl)amino)-4-isopropyl-2,7-naphthyridin-1-yl)-2-methylazetidin-3-yl)oxy)ethan-1-ol]
4 | 10 to 20 nM | < 15 nM | CO[C@H]1CCN(c2nccc(Nc3cc4c(C(C)C)cnc(N5C[C@H](O)[C@H]5C)c4cn3)n2)C[C@H]1F [Example 149, (2R,3S)-1-(6-((2-((3R,4S)-3-fluoro-4-methoxypiperidin-1-yl)pyrimidin-4-yl)amino)-4-isopropyl-2,7-naphthyridin-1-yl)-2-methylazetidin-3-ol]
5 | < 10 nM | < 15 nM | CO[C@@H]1CCN(c2nccc(Nc3cc4c(C(C)C)cnc(N5C[C@H](O)[C@H]5C)c4cn3)n2)C[C@@H]1F [Example 150, (2R,3S)-1-(6-((2-((3S,4R)-3-fluoro-4-methoxypiperidin-1-yl)pyrimidin-4-yl)amino)-4-isopropyl-2,7-naphthyridin-1-yl)-2-methylazetidin-3-ol]
6 | 30 to 50 nM | 15 to 20 nM | CC(C)c1cnc(N2CCC2)c2cnc(Nc3ccnc(N4CC[C@@H](O)[C@@H](F)C4)n3)cc12 [Example 152, (3S,4R)-1-(4-((8-(azetidin-1-yl)-5-isopropyl-2,7-naphthyridin-3-yl)amino)pyrimidin-2-yl)-3-fluoropiperidin-4-ol]
7 | 10 to 20 nM | < 15 nM | CC(C)c1cnc(N2C[C@H](O)[C@H]2C)c2cnc(Nc3ccnc(N4CC[C@@H](O)[C@@H](F)C4)n3)cc12 [Example 154, (3S,4R)-3-fluoro-1-(4-((8-((2R,3S)-3-hydroxy-2-methylazetidin-1-yl)-5-isopropyl-2,7-naphthyridin-3-yl)amino)pyrimidin-2-yl)piperidin-4-ol]
8 | 20 to 30 nM | < 15 nM | CO[C@@H]1CCN(c2nccc(Nc3cc4c(C(C)C)cnc(N5C[C@H](OCCN)[C@H]5C)c4cn3)n2)C[C@@H]1F [Example 163, 8-((2R,3S)-3-(2-aminoethoxy)-2-methylazetidin-1-yl)-N-(2-((3S,4R)-3-fluoro-4-methoxypiperidin-1-yl)pyrimidin-4-yl)-5-isopropyl-2,7-naphthyridin-3-amine]
9 | 30 to 50 nM | < 15 nM | CNC[C@@H]1CCN1c1ncc(C(C)C)c2cc(Nc3ccnc(N4CC[C@H](OC)[C@H](F)C4)n3)ncc12 [Example 164, N-(2-((3R,4S)-3-fluoro-4-methoxypiperidin-1-yl)pyrimidin-4-yl)-5-isopropyl-8-((S)-2-((methylamino)methyl)azetidin-1-yl)-2,7-naphthyridin-3-amine]
10 | 20 to 30 nM | < 15 nM | CO[C@H]1CCN(c2nccc(Nc3cc4c(C(C)C)cnc(N5CC[C@H]5CN)c4cn3)n2)C[C@H]1F [Example 165, 8-((S)-2-(aminomethyl)azetidin-1-yl)-N-(2-((3R,4S)-3-fluoro-4-methoxypiperidin-1-yl)pyrimidin-4-yl)-5-isopropyl-2,7-naphthyridin-3-amine]
11 | 10 to 20 nM | < 15 nM | CNCCO[C@@H]1CCN(c2nccc(Nc3cc4c(C(C)C)cnc(N5CC[C@H]5C)c4cn3)n2)C[C@@H]1F [Example 201, N-(2-((3S,4R)-3-fluoro-4-(2-(methylamino)ethoxy)piperidin-1-yl)pyrimidin-4-yl)-5-isopropyl-8-((R)-2-methylazetidin-1-yl)-2,7-naphthyridin-3-amine]
12 | > 50 nM | 20 to 30 nM | CC(C)c1cnc(N2CC(n3ccnc3)C2)c2cnc(Nc3ccnc(N4CC[C@@H](O)[C@@](C)(F)C4)n3)cc12 [Example 219, (3S,4R)-1-(4-((8-(3-(1H-imidazol-1-yl)azetidin-1-yl)-5-isopropyl-2,7-naphthyridin-3-yl)amino)pyrimidin-2-yl)-3-fluoro-3-methylpiperidin-4-ol]

More lines, now with the values behind:

Row | Compound | IC50 [1] | IC50 (EGFR (L858R T790M C797S))
13 | CC(C)c1cnc(N2CCCC2)c2cnc(Nc3ccnc(N4CC[C@@H](O)[C@@H](F)C4)n3)cc12 [Example 151, (3S,4R)-3-fluoro-1-(4-((5-isopropyl-8-(pyrrolidin-1-yl)-2,7-naphthyridin-3-yl)amino)pyrimidin-2-yl)piperidin-4-ol] | 30 to 50 nM | 20 to 30 nM
14 | CC(C)Oc1cnc(N2CC[C@H]2C)c2cnc(Nc3ccnc(N4CC[C@@H](O)[C@@H](F)C4)n3)cc12 [Example 153, (3S,4R)-3-fluoro-1-(4-((5-isopropoxy-8-((R)-2-methylazetidin-1-yl)-2,7-naphthyridin-3-yl)amino)pyrimidin-2-yl)piperidin-4-ol] | > 50 nM | 30 to 100 nM
15 | CC(C)c1cnc(N2CCC23CNC3)c2cnc(Nc3ccnc(N4CC[C@@H](O)[C@@](C)(F)C4)n3)cc12 [Example 190, (3S,4R)-3-fluoro-1-(4-((5-isopropyl-8-(1,6-diazaspiro[3.3]heptan-1-yl)-2,7-naphthyridin-3-yl)amino)pyrimidin-2-yl)-3-methylpiperidin-4-ol] | > 50 nM | < 15 nM
16 | CC(C)c1cnc(N2CCC23CN(C)C3)c2cnc(Nc3ccnc(N4CC[C@@H](O)[C@@](C)(F)C4)n3)cc12 [Example 192, (3S,4R)-3-fluoro-1-(4-((5-isopropyl-8-(6-methyl-1,6-diazaspiro[3.3]heptan-1-yl)-2,7-naphthyridin-3-yl)amino)pyrimidin-2-yl)-3-methylpiperidin-4-ol trifluoroacetate] | 30 to 50 nM | < 15 nM
17 | CC(C)c1cnc(N2CCC23CN(C(C)C)C3)c2cnc(Nc3ccnc(N4CC[C@@H](O)[C@@](C)(F)C4)n3)cc12 [Example 193, (3S,4R)-3-fluoro-1-(4-((5-isopropyl-8-(6-isopropyl-1,6-diazaspiro[3.3]heptan-1-yl)-2,7-naphthyridin-3-yl)amino)pyrimidin-2-yl)-3-methylpiperidin-4-ol] | 20 to 30 nM | < 15 nM
18 | CC(C)c1ncc(N2CCC23CN(C)C3)c2cnc(Nc3ccnc(N4CC[C@@H](O)[C@@](C)(F)C4)n3)cc12 [Example 195, (3S,4R)-3-fluoro-1-(4-((5-isopropyl-8-(6-methyl-1,6-diazaspiro[3.3]heptan-1-yl)-2,6-naphthyridin-3-yl)amino)pyrimidin-2-yl)-3-methylpiperidin-4-ol] | 30 to 50 nM | 20 to 30 nM
19 | CC(C)c1cnc(N2CCC23CCN(C)CC3)c2cnc(Nc3ccnc(N4CC[C@@H](O)[C@@](C)(F)C4)n3)cc12 [Example 196, (3S,4R)-3-fluoro-1-(4-((5-isopropyl-8-(7-methyl-1,7-diazaspiro[3.5]nonan-1-yl)-2,7-naphthyridin-3-yl)amino)pyrimidin-2-yl)-3-methylpiperidin-4-ol] | 10 to 20 nM | < 15 nM
20 | CNC[C@@H]1CCCN1c1ncc(C(C)C)c2cc(Nc3ccnc(N4CC[C@@H](O)[C@@](C)(F)C4)n3)ncc12 [Example 197, (3S,4R)-3-fluoro-1-(4-((5-isopropyl-8-((S)-2-((methylamino)methyl)pyrrolidin-1-yl)-2,7-naphthyridin-3-yl)amino)pyrimidin-2-yl)-3-methylpiperidin-4-ol] | 30 to 50 nM | < 15 nM
21 | CNCCO[C@H]1CCN(c2nccc(Nc3cc4c(C(C)C)cnc(N5CC[C@H]5C)c4cn3)n2)C[C@H]1F [Example 200, N-(2-((3R,4S)-3-fluoro-4-(2-(methylamino)ethoxy)piperidin-1-yl)pyrimidin-4-yl)-5-isopropyl-8-((R)-2-methylazetidin-1-yl)-2,7-naphthyridin-3-amine] | < 10 nM | < 15 nM
22 | CC(C)c1cnc(N2CC[C@H]2C)c2cnc(Nc3ccnc(N4CC[C@H](OCCN(C)C)[C@H](F)C4)n3)cc12 [Example 202, N-(2-((3R,4S)-4-(2-(dimethylamino)ethoxy)-3-fluoropiperidin-1-yl)pyrimidin-4-yl)-5-isopropyl-8-((R)-2-methylazetidin-1-yl)-2,7-naphthyridin-3-amine] | 30 to 50 nM | 30 to 100 nM
23 | CC(C)c1cnc(N2CC[C@H]2C)c2cnc(Nc3ccnc(N4CC[C@@H](OCCN(C)C)[C@@H](F)C4)n3)cc12 [Example 203, N-(2-((3S,4R)-4-(2-(dimethylamino)ethoxy)-3-fluoropiperidin-1-yl)pyrimidin-4-yl)-5-isopropyl-8-((R)-2-methylazetidin-1-yl)-2,7-naphthyridin-3-amine] | 30 to 50 nM | < 15 nM
